The source made the active and inactive calls. The rule behind the calls is not given here.
Assays:
RAW264.7 [1] = assay: Cytotoxicity against mouse RAW264.7 cells assessed as reduction in cell viability at 80 uM incubated for 24 hrs by MTT assay; assay type: toxicity, cell-based; conditions: raw264.7, 24 h
SW-620 = assay: Cytotoxicity against human SW-620 cells assessed as reduction in metabolically active cells by MTT assay; assay type: functional, cell-based
RAW264.7 [2] = assay: Inhibition of NF-kappaB in mouse RAW264.7 cells assessed as inhibition of LPS-induced NF-kappaB p65 nuclear translocation at 15 to 60 uM pretreated for 1 hr followed by incubation with LPS for 24 hrs by immunofluorescence analysis; assay type: cell-based; conditions: dose 15-60 µM, time 25.0 hrs
RAW264.7 [3] = assay: Anti-inflammatory activity against LPS-activated mouse RAW264.7 cells assessed as reduction of IL-1 beta gene expression at 7.5 to 30 uM pretreated for 1 hr followed by incubation with LPS for 24 hrs by qRT-PCR analysis; assay type: functional, cell-based; conditions: dose 7.5-30 µM, time 25.0 hrs
RAW264.7 [4] = assay: Anti-inflammatory activity against mouse RAW264.7 cells assessed as inhibition of LPS-induced NO production pretreated for 1 hr followed by incubation with LPS and measured after 24 hrs by Griess reagent based analysis; assay type: functional, cell-based
RAW264.7 [5] = assay: Anti-inflammatory activity against mouse RAW264.7 cells assessed as inhibition of LPS-induced NO production at 60 uM pretreated for 1 hr followed by incubation with LPS and measured after 24 hrs by Griess reagent based analysis; assay type: functional, cell-based; conditions: time 25.0 hrs
RAW264.7 [6] = assay: Downregulation of phospho-IKKalpha/beta expression in LPS-activated mouse RAW264.7 cells at 7.5 to 30 uM pretreated for 1 hr followed by incubation with LPS for 24 hrs by western blot analysis; assay type: functional, cell-based; conditions: dose 7.5-30 µM, time 25.0 hrs
RAW264.7 [7] = assay: Downregulation of NF-kappaB expression in LPS-activated mouse RAW264.7 cells at 7.5 to 30 uM pretreated for 1 hr followed by incubation with LPS for 24 hrs by western blot analysis; assay type: functional, cell-based; conditions: dose 7.5-30 µM, time 25.0 hrs
RAW264.7 [8] = assay: Anti-inflammatory activity against LPS-activated mouse RAW264.7 cells assessed as reduction of IL-6 gene expression at 7.5 to 30 uM pretreated for 1 hr followed by incubation with LPS for 24 hrs by qRT-PCR analysis; assay type: functional, cell-based; conditions: dose 7.5-30 µM, time 25.0 hrs
Danio rerio = species on record: Danio rerio; assay: Anti-inflammatory activity against Zebra fish embryo assessed as inhibition of LPS-induced ROS production at 5 uM pretreated with LPS followed by incubation with drug by fluorescence microscopy; assay type: functional, organism-based
RAW264.7 [9] = assay: Anti-inflammatory activity against LPS-activated mouse RAW264.7 cells assessed as reduction of NFkappaB p52 gene expression at 7.5 to 30 uM pretreated for 1 hr followed by incubation with LPS for 24 hrs by qRT-PCR analysis; assay type: functional, cell-based; conditions: dose 7.5-30 µM, time 25.0 hrs
RAW264.7 [10] = assay: Anti-inflammatory activity against mouse RAW264.7 cells assessed as inhibition of LPS-induced ROS production at 15 to 60 uM pretreated for 1 hr followed by incubation with LPS for 24 hrs by DCFH-DA staining based flow cytometry; assay type: functional, cell-based; conditions: dose 15-60 µM, time 25.0 hrs
RAW264.7 [11] = assay: Anti-inflammatory activity against mouse RAW264.7 cells assessed as inhibition of LPS-induced ROS production at 10 to 40 uM pretreated for 1 hr followed by incubation with LPS for 24 hrs by DCFH-DA staining based fluorescence microscopy; assay type: functional, cell-based; conditions: dose 10-40 µM, time 25.0 hrs
RAW264.7 [12] = assay: Anti-inflammatory activity against LPS-activated mouse RAW264.7 cells assessed as reduction of TNF-alpha gene expression at 7.5 to 30 uM pretreated for 1 hr followed by incubation with LPS for 24 hrs by qRT-PCR analysis; assay type: functional, cell-based; conditions: dose 7.5-30 µM, time 25.0 hrs

Row | SMILES | Activity (RAW264.7 [1]) | Activity (RAW264.7 [5]) | also measured
1 | COC1=CC(=O)c2c(cc3c(c2O)[C@H](O)[C@@H](O)[C@@](C)(O)C3)C1=O | Toxic | – | IC50 (SW-620): 13.7 µM
2 | COc1cc(O)c2c(c1O)[C@H](O)[C@H]1C[C@](C)(O)[C@H](O)[C@@H](O)[C@@H]1C2=O [9ALPHA-HYDROXYHALOROSELLINIA A] | Toxic | – | –
3 | COc1cc(O)c2c(c1O)[C@H](O)[C@H]1C[C@](C)(O)[C@H](O)[C@@H](O)[C@H]1C2=O | – | Active | inhibition (RAW264.7 [2]): Active; Activity (RAW264.7 [3]): Active; IC50 (RAW264.7 [4]): 7.5 µM; inhibition (RAW264.7 [6]): Active; inhibition (RAW264.7 [7]): Active; Activity (RAW264.7 [8]): Active; Activity (Danio rerio): Active; Activity (RAW264.7 [9]): Active; Activity (RAW264.7 [10]): Active; Activity (RAW264.7 [11]): Active; Activity (RAW264.7 [12]): Active
4 | COc1cc(O)c2c(c1N)C(=O)C1=C(C[C@@H](O)[C@@](C)(O)C1)C2=O | – | Active | –
5 | COc1cc(O)c2c(c1O)[C@H](OC)[C@H]1C[C@](C)(O)[C@H](O)[C@@H](O)[C@@H]1C2=O | – | Active | –
6 | COc1cc(O)c2c(c1O)[C@@H](OC)[C@H]1C[C@](C)(O)[C@H](O)[C@@H](O)[C@@H]1C2=O | – | Active | –
7 | COc1cc(O)c2c(c1O)[C@H](O)[C@H]1C[C@](C)(O)[C@H](O)C[C@H]1C2=O | – | Active | –
8 | COc1cc(O)c2c(c1O)C(O)C1C[C@](C)(O)[C@H](O)CC1C2=O (stereo partly drawn) | Toxic | – | –
9 | COc1cc(O)c2c(c1O)[C@H]1O[C@]3(C)C[C@H]1[C@@H](C[C@@H]3O)C2=O | Toxic | – | –
10 | COc1cc(O)c2c(c1O)[C@H](OC)[C@H]1C[C@](C)(O)[C@H](O)C[C@@H]1C2=O | – | Active | –
11 | COc1cc(O)c2c(c1O)[C@H](O)[C@H]1C[C@](C)(O)C[C@@H](O)[C@@H]1C2=O | Toxic | – | –
12 | COc1cc(O)c2c(c1O)C(=O)[C@H]1C[C@](C)(O)[C@H](O)[C@@H](O)[C@@H]1C2=O | – | Active | –
13 | COc1cc(O)c2c(c1O)[C@@H](OC)[C@H]1C[C@](C)(O)[C@H](O)C[C@@H]1C2=O | – | Active | –
14 | C[C@]1(O)C[C@@]2(O)[C@H](C[C@H]1O)C(=O)c1c(O)ccc(O)c1[C@@H]2O | – | Active | –
15 | COc1cc(O)c2c(c1O)[C@H](OC)[C@H]1C[C@](C)(O)[C@H](O)[C@@H](O)[C@H]1C2=O | Toxic | – | –
16 | COc1cc(O)c2c(c1O)C(=O)C1=C(C[C@@H](O)[C@@](C)(O)C1)C2=O | Toxic | – | –

From ChEMBL document CHEMBL5120896, “Hydroanthraquinones from Nigrospora sphaerica and Their Anti-inflammatory Activity Uncovered by Transcriptome Analysis” (J Nat Prod, 2022)
